Test results taken from the METLIN SMRT retention time set (Domingo-Almenara et al. 2019).

Assay: gradient 5% acetonitrile 3 min, to 50% in 2 min, to 85% in 15 min, held 3 min, 100 µL/min
Settings: column: Zorbax Extend-C18 2.1 x 50 mm; eluents: water / acetonitrile, 0.1% formic acid
In short: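 Retention times of pure standards were taken from adduct peaks that were selected by computer and manually inspected. Over 3 months, mixtures of ~100 molecules were run by HPLC–quadrupole time-of-flight mass spectrometry in positive and negative ionization mode. The Zorbax Extend-C18 column (2.1 × 50 mm, 1.8 μm) ran at 100 μL/min in water and acetonitrile, each containing 0.1% formic acid, with 40 μL dead volume and 900 μL dwell volume.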

Row | RP-LC retention time [s] | SMILES
1 | 822 | CCCNC(=O)c1ccc(-c2ccc3c(c2)CCN3C(=O)CC)cc1
2 | 698 | CS(=O)(=O)c1ccc(-c2ccc(NC(=O)c3cccs3)cc2)nn1
3 | 676 | CCOC(=O)c1ncoc1-c1ccccc1C(=O)NC(C)C
4 | 916 | CC(C)c1ccc(N2C=C(C(=O)N3CCOCC3)S(=O)(=O)c3ccccc32)cc1
5 | 824 | Cc1cccc(CNC(=O)c2ccc3c(c2)nc2n3CCN(C3CCCCC3)C2=O)c1
6 | 972 | O=C(NC1CCCCC1)C1CCCN(c2nc3ccsc3c(=O)n2Cc2ccc(F)cc2)C1 (centres undefined)
7 | 760 | O=C(c1ccc(-c2cncnc2)nc1)N1CCN(c2ccccc2F)CC1
8 | 648 | Cn1ncc(N2CCC(C(=O)Nc3ccccc3)C2)cc1=O (centres undefined)
9 | 673 | CCOC(=O)N1CCN(C(=O)C2CCN(c3ncnc4c3oc3ccccc34)CC2)CC1
10 | 809 | CC(=O)Oc1cc2c(C(=O)NCC3CCCO3)c(C)oc2c2ccccc12 (centres undefined)
11 | 772 | Cc1ccc(C2CC(=O)c3cnc(Nc4nc(C)c5ccccc5n4)nc3C2)cc1 (centres undefined)
12 | 1280 | Cc1cccc(-c2noc(Cn3cnc4c(cnn4-c4ccc(C)c(Cl)c4)c3=O)n2)c1
13 | 1060 | O=S(=O)(Cc1ccccc1)N1CCC(Oc2nc3ccccc3s2)CC1
14 | 807 | CCn1c(-c2ccccc2)cc(C(=O)NC)c1C
15 | 753 | O=C(Cc1nnc(-c2ccc3ncccc3c2)o1)N1CCN(c2ccccc2F)CC1
16 | 561 | Cc1ccsc1CN1CCCC(c2nc(-c3cccnc3)n[nH]2)C1 (centres undefined)
17 | 622 | COCCNc1c(C(=O)OC)c(=O)[nH]c2ccc(F)cc12
18 | 930 | COc1ccc(Cl)cc1NC(=O)NCC(=O)N1CCc2ccccc21
19 | 600 | COc1ccc(CNC(=S)Nc2ccc3nc(N4CCN(C)CC4)cc(C)c3c2)c(OC)c1
20 | 870 | COc1ccccc1C(=O)NC1CCN(c2ccc(C)cc2)C1=O (centres undefined)
21 | 800 | O=C(NCc1cccc(Br)c1)C1CCCN(C(=O)C2Sc3ccccc3NC2=O)C1 (centres undefined)
22 | 907 | CN(Cc1ccccc1)C(=O)CN1C(=O)CCCc2cc(S(=O)(=O)N3CCCCC3)ccc21
23 | 624 | O=C(OCC(O)COC(=O)c1cccnc1)c1cccnc1

Row | RP-LC retention time [s] | SMILES
24 | 968 | CCN1c2cc(Cl)ccc2C(=O)NC12CCN(C(=O)Nc1ccc(C)cc1C)CC2
25 | 736 | Cc1ccc(NCCN(C)C)c2c(=O)c3cc(O)ccc3sc12
26 | 714 | Cc1cccc(C)c1NC(=O)Cn1ncc2c(c1=O)N(C1CC1)C(=O)CS2
27 | 578 | CCN1CCN(c2cc(C)c3cc(NC(=O)Cc4cccs4)ccc3n2)CC1
28 | 774 | O=C(c1ccsc1)N1CCC(N(C(=O)Cc2ccccc2)C2CCOCC2)CC1
29 | 660 | O=S(=O)(Nc1ccc2c(c1)OCCO2)c1ccc2nncn2c1
30 | 589 | O=C(NCCCn1ncccc1=O)c1coc(NC(=O)c2cccs2)n1
31 | 613 | CCN(CC)CCCNC(=O)CN1C(=O)CCn2nc(-c3cn(C)c4ccccc34)cc21
32 | 662 | CC(C)NC(=O)c1n[nH]c2c1CCCC2
33 | 599 | Cc1cccc(CN2CCC(CNC(=O)C3CCCN(c4cc(=O)n(C)c(=O)n4C)C3)CC2)c1 (centres undefined)
34 | 918 | Cc1ncsc1CN1CCC(c2nc(-c3ccc(F)cc3)n[nH]2)CC1
35 | 809 | CCOC(=O)c1ccc(NC(=O)N2CCCC2c2cc(C)on2)cc1 (centres undefined)
36 | 609 | Cc1cc(N2CCN(C)CC2)nc2ccc(NC(=O)Nc3ccc(Br)cc3)cc12
37 | 1200 | Cc1sc(NC(=O)Cc2csc(-c3ccccc3)n2)nc1-c1ccc(F)cc1
38 | 660 | CCCN(CCC)C(=O)Cn1c(C2CCCN2C(=O)CC)nc2ccccc21 (centres undefined)
39 | 603 | COc1ccccc1N1CCN(C(=O)c2cn3ccccc3n2)CC1
40 | 716 | CCCC(=O)Nc1ccc2c(c1)CN(C(=O)CC1CCCC1)C(C(=O)N(C)C)C2 (centres undefined)
41 | 1080 | Cc1ccc(Cn2c(N3CCCC(C(=O)Nc4ccc(C)cc4)C3)nc3ccsc3c2=O)cc1 (centres undefined)
42 | 563 | O=C(CN1CCCc2nc(C3CC3)ncc2C1=O)NCCCN1CCOCC1
43 | 793 | CC(C)(C)n1nnnc1C1CC2(CCOCC2)C(=O)N1Cc1cc(F)ccc1F (centres undefined)
44 | 812 | CCn1nnc2cc(-c3noc(-c4ccc(NC(C)=O)cc4)n3)ccc21
45 | 755 | Nc1nc2ccc(Cl)cc2c2nc(-c3ccco3)nn12
46 | 640 | CCC(=O)N1CCc2c(c(C(=O)N3CCC(C(=O)NCc4ccc(OC)cc4)CC3)nn2C)C1

Row | RP-LC retention time [s] | SMILES
47 | 671 | Cc1nn(C)c(C)c1S(=O)(=O)N1CCC(Cc2nncn2-c2ccccc2)CC1
48 | 922 | COc1ccc(C2(C(=O)N3CCCCCCN(C)C(=O)[C@@H]4CCC[C@@H]43)CC2)cc1
49 | 641 | COC(=O)CC(=O)Nc1cc2c(cc1N1CCCCC1)n(C)c(=O)n2C
50 | 919 | O=C(Nc1cccc(F)c1)C1CCCN(S(=O)(=O)c2c[nH]c(C(=O)N3CCCCCC3)c2)C1 (centres undefined)
51 | 583 | O=C1c2cccc(NCCCNCCO)c2C(=O)c2cccc(NCCCNCCO)c21
52 | 666 | Cc1c(Cl)ccc2c(=O)c3c([nH]c12)CCN(CC(=O)NCc1ccc2c(c1)OCO2)C3
53 | 660 | CC(Oc1ccccc1F)C(=O)NCCn1nc(-n2cccn2)ccc1=O (centres undefined)
54 | 1070 | CCN(c1ccccc1)c1nc(Cl)nc2c1cnn2C
55 | 989 | CCc1ccc(OCC(=O)N(Cc2ccc(OC)cc2)C2CCS(=O)(=O)C2)cc1 (centres undefined)
56 | 894 | CCN1CCCn2cc(S(=O)(=O)N3CCN(c4ccc(Cl)cc4)CC3)cc2C1=O
57 | 977 | Cc1cc(-c2nnc(-c3ccc(F)cc3)o2)c(C)n1CC(=O)Nc1ccccc1
58 | 624 | CC1CCC(NC(=O)C2CCN(C(=O)c3cc(-c4ccncc4)n[nH]3)CC2)CC1 (centres undefined)
59 | 976 | O=c1ccc(-c2ccccc2)nn1Cc1nc(-c2ccccc2Cl)no1
60 | 1020 | Cc1c(Cc2ccccc2)[n+](=O)c2ccccc2n1[O-]
61 | 654 | Cc1cc(C(=O)N(C)C2CCc3nnc(C)n3CC2)c(C)n1Cc1ccco1 (centres undefined)
62 | 888 | O=C(NCc1ccco1)C1CCCN(S(=O)(=O)Cc2ccc(Cl)cc2)C1 (centres undefined)
63 | 789 | CCOC(=O)c1ccc(NC(=O)C2CCN(S(=O)(=O)c3cn(C(C)C)cn3)CC2)cc1
64 | 902 | COc1cccc(NC(=O)CN2C(=O)C3CCCCN3c3ccc(S(=O)(=O)N(C)C)cc32)c1 (centres undefined)
65 | 835 | O=C1NC2(CCN(C(=O)c3ccc4c(c3)OCO4)CC2)N=C1c1cccc(Cl)c1
66 | 827 | COCCN1C(=O)c2ccccc2C(C(=O)NCCc2ccccc2)C12CCCC2 (centres undefined)
67 | 658 | CCOC(=O)c1ccc(NC(=O)Cn2cnc3nc(N4CCCC(C(=O)NC)C4)sc3c2=O)cc1 (centres undefined)
68 | 718 | CS(=O)(=O)Nc1cccc(NC(=O)c2ccc(=O)n(Cc3ccccc3)n2)c1
69 | 697 | CC1CCN(c2ncnc3c2cnn3CC(=O)Nc2ccc(Cl)cc2)CC1

Row | RP-LC retention time [s] | SMILES
70 | 973 | CSc1ccccc1NC(=O)c1cnc(-c2ccc(C)cc2)nc1-c1ccncc1
71 | 683 | O=C(c1ccc(Cl)cc1)N1CCN(c2cnn3c(C4CC4)nnc3c2)CC1
72 | 625 | Cc1cc(C(=O)Nc2ccc(S(C)(=O)=O)cc2)on1
73 | 645 | COc1ccc(Nc2nc(N3CCN(C)CC3)nc3c2C(=O)CCC3)cc1
74 | 641 | CCCCN(C)CCNC(=O)c1cc2cc3ccc(OC)cc3nc2o1
75 | 841 | Cc1ccc(CN2CCN(C3CCN(C(=O)Nc4ccc5c(c4)OCO5)CC3)C2=O)cc1
76 | 690 | c1cc(-c2noc(-c3ccc4c(c3)OCO4)n2)cc(N2CCCC2)n1
77 | 826 | COc1ccc(C2CC(=O)N(CC(=O)NCC3CCCO3)c3ccccc3S2)cc1 (centres undefined)
78 | 603 | CCCn1cc(C(=O)N2CCN(C3CCCCC3)CC2)c2cccnc21
79 | 821 | COc1ccc(-c2cn3ccn(-c4cccc(F)c4)c(=O)c3n2)cc1
80 | 978 | O=C(CN1C(=O)C(C(=O)N2CCCC2)Sc2ccccc21)Nc1ccc(F)cc1 (centres undefined)
81 | 995 | Cc1cccc(NC(=O)c2cc(C)n3nccc3n2)c1C
82 | 666 | CCn1c(CCNC(=O)c2cc(C)cc(C)c2)nc2cccnc21
83 | 981 | CCC(C)NC(=O)N1CCN(c2nc3ccccc3n(Cc3ccccc3)c2=O)CC1 (centres undefined)
84 | 1080 | CCCc1cc(=O)n(CC(=O)Nc2ccc(C)cc2Cl)c(-c2ccc(Cl)cc2)n1
85 | 1200 | c1ccc(-c2nc(-c3ccc(-n4cccn4)nc3)no2)cc1
86 | 673 | O=C(c1nc(-c2ccnc(N3CCCCC3)c2)no1)N1CCCC1
87 | 816 | Cc1cc(C2CCCN2C(=O)c2c(-c3ccccc3Cl)noc2C)on1 (centres undefined)
88 | 754 | Cn1ccc2c(cc(C(=O)NCc3ccc(C(F)(F)F)cc3)n2C)c1=O
89 | 718 | O=C([C@@H]1CC(F)(F)CN1C(=O)CCn1c(=O)oc2ccccc21)N1CCCC1
